From US6001882A (priority 1997, dated 1999)
Several values for one entry are separate records, joined by “and”; a condition that tells them apart may be missing. Equal values may be shown once. Read-outs that look alike come from different tables or passages of the source.

Assays:
neoplastic ("CTL") PBMC = assay: Lymphocyte proliferation (3H-TdR incorporation), ConA-stimulated neoplastic PBMC from subject having CTCL; type: cell-based, human; settings: for IC50: read-out: IC50 of ConA-induced cell proliferation
From the text: (§1) In two of the types of lymphocytes, the mitogen, ConA, was used to induce proliferation, as described (Fox et al., 1993, Cell. Immunol. 150:45-58). The third type of lymphocytes used in this example proliferated actively in vitro without the need for mitogenic stimulation. The three types of lymphocytes which were used in this example were: PBMC obtained from a normal human subject and stimulated with ConA; PBMC, including malignant CD4+ T-lymphocytes, obtained from a human subject having CTCL and stimulated with ConA; and PBMC obtained from a normal human subject, which PBMC were exposed to Epstein-Barr virus (EBV) after being obtained from the subject, to produce transformed lymphocytes. It is known that EBV-transformed B-lymphocytes proliferate actively in vitro (Polack, 1996, Proc. Natl. Acad. Sci. U.S.A. 93:10411-10416; Longnecker, 1994, Leukemia 8:546-550).
(§2) Peripheral blood mononuclear cells (PBMC) were obtained by separating them from whole blood, using Ficoll-Paque separation techniques and media (Boyum, 1964, Nature 793-794). After they were obtained, PBMC were resuspended in RPMI 1640 medium, which comprised 10% (v/v) fetal bovine serum (GIBCO, Grand Island, N.Y.), and were distributed into the wells of 96-well microtiter plates. PBMC transformed using EBV were made as described (Neitzel, 1986, Hum. Gen. 73:320-326)
(§3) This stock solution stored at 4° C. in the dark. A stock solution comprising 462.5 μM 8-methoxypsoralen (8-MOP) was prepared in 2% (v/v) benzyl alcohol. 8-MOP was obtained from Sigma (St. Louis, Mo.).
(§4) In cultures of transformed leukocytes in which 8-MOP was used, the concentrations of 8-MOP which were used were 92.5 μM, 18.5 μM, 3.7 μM, 0.74 μM, 0.15 μM, and 0.030 μM. Thereafter, ConA was then added to preselected wells to achieve a final concentration of 10 μg/ml of ConA in those wells.
(§5) Following preparation of the microtiter culture plates, preselected plates were illuminated with fluorescent visible light for 10-30 minutes, using four fluorescent bulbs (type F15T8CW, TFC Inc., Taiwan) spaced at a distance of 9 cm above the plates. Other preselected plates were illuminated with 0.5-2 Joules per square centimeter UV-A light using a UV-A light box containing 8 UVAR 06-91 bulbs. Still other preselected plates were not exposed to light. The covers of plates which were exposed to light were left in place during illumination.
(§6) Following illumination, plates which had been illuminated were placed into a dark incubator which was maintained at 37° C. Non-illuminated plates were placed into the incubator immediately after preparation. All plates were incubated for seventy-two hours. During the final eighteen hours of incubation, tritiated thymidine (^3 H-TdR) was added to each well of each plate. No extraordinary precautions were used to prevent light exposure during the addition of ^3 H-TdR.
(§7) Lymphocyte proliferation was assessed by measuring the extent of incorporation of ^3 H-TdR into newly synthesized DNA within the cells at the end of the seventy-two hour incubation period, as described (Fox, 1993, Cell. Immunol. 150:45-58).

transformed ("EBV") PBMC = assay: Lymphocyte proliferation (3H-TdR incorporation), EBV-transformed PBMC; type: cell-based, human; settings: for IC50: read-out: IC50 of cell proliferation; for ability to inhibit proliferation, 2 vs 1 J/cm^2: UV-A 2 J/cm^2 relative to 1 J/cm^2; for effect of UV-A on ability to inhibit proliferation: UV-A vs none; for effect of visible light on ability to inhibit proliferation: visible light vs none
From the text: as §1, §2, §3, §4, §5, §6, §7

[1] = system: PBMC from a patient to whom 8-MOP had been administered; assay: ConA-induced proliferation of PBMC from a patient to whom 8-MOP had been administered, visible light; type: cell-based, human; settings: 20 min
Experimental: PBMC from a patient to whom 8-MOP had been administered were illuminated for 20 minutes using the bank of visible fluorescent lights used in the experiments described in this example. Proliferation of these cells in response to ConA was measured.

[2] = Absorbance spectrum / photoactivation wavelength; type: physicochemical; settings: 20 μM hypericin in phosphate-buffered saline
From the text: Absorbance maxima which were observed included maxima at 327 nm, 563 nm, and 603 nm.

glioma cells = settings: in vitro; cited from earlier work
leukocytes = settings: photoactivated; cited from earlier work
enveloped virus = settings: hypericin photoactivated prior to treatment of virus; cited from earlier work
[3] = cited from earlier work
[4] = photoreaction; cited from earlier work
[5] = system: xenografted carcinoma cells; settings: intraperitoneal; local illumination of skin; cited from earlier work
leukemia cells = settings: cited from earlier work
viruses = settings: photoactivated; in vitro; cited from earlier work
protein kinase = settings: cited from earlier work
[6] = Homo sapiens, PBMC, 10 min, visible light, 10 min
[7] = Homo sapiens, PBMC, 20 min, visible light, 20 min
[8] = Homo sapiens, PBMC, 0.5 h, visible light, 30 min
[9] = Homo sapiens, PBMC, UV-A, 0.5 J/sc
[10] = Homo sapiens, PBMC, UV-A, 1 J/sc
[11] = Homo sapiens, PBMC, UV-A, 2 J/sc
[12] = Homo sapiens, PBMC, not illuminated

SMILES | IC50 (neoplastic ("CTL") PBMC; [6]) [nM] | IC50 (neoplastic ("CTL") PBMC; [7]) [nM] | IC50 (neoplastic ("CTL") PBMC; [9]) [nM] | IC50 (neoplastic ("CTL") PBMC; [10]) [nM] | IC50 (transformed ("EBV") PBMC; [6]) [nM] | IC50 (transformed ("EBV") PBMC; [7]) [nM] | IC50 (transformed ("EBV") PBMC; [8]) [nM] | IC50 (transformed ("EBV") PBMC; [9]) [nM] | IC50 (transformed ("EBV") PBMC; [10]) [nM] | IC50 (transformed ("EBV") PBMC; [11]) [nM] | IC50 (transformed ("EBV") PBMC; [12]) [nM] | ability to inhibit proliferation, 2 vs 1 J/cm^2 (transformed ("EBV") PBMC) | effect of UV-A on ability to inhibit proliferation (transformed ("EBV") PBMC) | effect of visible light on ability to inhibit proliferation (transformed ("EBV") PBMC) | further results
COc1c2occc2cc2ccc(=O)oc12 [8-MOP, 8-methoxypsoralen] | 3600 | 3600 | 740 | 200 | 18700 | 17300 | 18900 | 4200 | 1600 | 700 | 19400 | roughly doubled | enhanced significantly upon illumination using UV-A light | not enhanced upon illumination using visible light | IC50 (neoplastic ("CTL") PBMC; [8]): 3100 nM; IC50 (neoplastic ("CTL") PBMC; Homo sapiens, PBMC, not illuminated, benzyl alcohol vehicle itself inhibitory at highest concentrations): 4400 nM; illumination-dependent inhibition of proliferation [1]: No illumination-dependent inhibition of proliferation
Cc1cc(O)c2c(=O)c3c(O)cc(O)c4c5c(O)cc(O)c6c(=O)c7c(O)cc(C)c8c1c2c(c34)c(c78)c65 [hypericin, 1,3,4,6,8,13-Hexahydroxy-10,11,dimethyl-phenanthro[1,10,9,8,-opqra]perylene-7,14-dione] | 400 | 340 | 1800 | 570 | 3200 | 1800 | 750 | 3700 | 2100 | 2000 | 36000 | essentially the same | enhanced significantly upon illumination using UV-A light | enhanced significantly upon illumination using visible light | IC100 (neoplastic ("CTL") PBMC; Homo sapiens, PBMC, 72 h, visible light, 20 min, read-out: concentration at which proliferation was completely inhibited): 3.2 µM; inhibition of mitogen-induced proliferation (neoplastic ("CTL") PBMC; malignant PBMC): inhibits mitogen-induced proliferation of PBMC; IC50 (neoplastic ("CTL") PBMC; visible light, 20 min): 530 nM and 300 nM; absorbance maximum [2]: 327 nm and 563 nm and 603 nm; effect of light on antiproliferative effects (glioma cells): only slightly enhance hypericin's antiproliferative effects on glioma cells; effect on leukocytes (leukocytes): no effect of hypericin on leukocytes; IC100 (transformed ("EBV") PBMC; Homo sapiens, PBMC, 72 h, visible light, 30 min, read-out: concentration at which proliferation was completely inhibited): 3.2 µM; inhibition of proliferation after 30 min illumination (transformed ("EBV") PBMC; visible light, 30 vs 10 or 20 min): greater than that which resulted from illumination for a period of 10 or 20 minutes; effect on enveloped virus (enveloped virus): reduce the infectious titer of the enveloped virus, but did not inactivate the virus; presence in skin ([3]; after systemic administration): demonstrated in skin after systemic administration; presence in blood plasma ([3]; following administration to mammals): remains in the blood plasma; half life ([3]; in vivo): 20 to 24 h; singlet oxygen production [4]: produce singlet oxygen; inhibition of proliferation of xenografted carcinoma cells [5]: inhibited proliferation of these carcinoma cells; inhibition of proliferation (leukemia cells): incapable of inhibiting proliferation of leukemia cells; inactivation of viruses in blood compositions (viruses): could be used to inactivate viruses in blood compositions in vitro; protein kinase inhibition (protein kinase): inhibits protein kinase activity
